# Entries after “also recorded” stand apart in the source; their conditions may differ.
# Legend:
# DNA of tumor cells [1] = assay: DNA binding of platinum compounds; details: for DNA binding: pH 6.8 (solid tumor pH norm)
# From the text: ^195mPlatinum is cytotoxic by its release of “auger” electron at 33/disintegrations and with a half-life of over 4 days. In order to amplify the cytotoxicity of the tumor cells, the final drug radioactive thioplatin must be located on the DNA of tumor cells. […] Radioactive thioplatin can be quantitated in the clinic by nuclear SPECT scanning of the tumor and normal tissues for low-energy photons (65-129 kev) emitted by radioactive platinum.
# [2] = system: human lung and colon cancer; assay: Tumor cytotoxicity in human tumor xenografts in nude mice; type: in vivo
# [3] = Normal tissue toxicity in experimental animals (body weight, white blood cells, BUN, histopathology/biopsy of kidney and intestine); type: in vivo
# Procedure: Thioplatin administered to experimental animals was assayed for the effects of the drug on body weight, white blood cells, BUN and histophathology of kidneys and small intestines.
# [4] = background statement; cited from earlier work
# DNA of tumor cells [5] = details: background statement; cited from earlier work
# human squamous carcinoma = details: nude mice bearing a human squamous carcinoma; cited from earlier work
Compound,"DNA binding relative to cisplatin (DNA of tumor cells [1]; background statement, compared to cisplatin)",DNA binding (DNA of tumor cells [1]),"tumor cytotoxicity ([2]; human tumor xenografts in nude mice, human lung and colon cancer)",pH dependence of cytotoxicity ([2]; tumor pH 6.8 versus normal pH 7.2 to 7.4),effect on BUN ([3]; experimental animals),effect on body weight ([3]; experimental animals),effect on white blood cells ([3]; experimental animals),histopathology of kidneys and small intestines ([3]; experimental animals),"normal tissue toxicity compared to cisplatin ([3]; human tumor xenografts in nude mice, compared to the standard cisplatin)",peripheral toxicity by direct biopsy of the kidney and intestinal tract [4],binding of DNA (DNA of tumor cells [5]),"antitumor effect (tumor growth delay, log of tumor growth, area under the curve) (human squamous carcinoma)"
thioplatin,one-thousand,"13,870 ng/mg",cytotoxic to human lung and colon cancer; also recorded: significant tumor cytotoxicity,most effective at an acidic pH,negligible,negligible,negligible,negligible,reduced normal tissue toxicity,lack of normal tissue toxicity,,
N.N.[Cl][Pt][Cl] [cisplatin],,14.6 ng/mg,,,,,,,,,14.3 nanograms/milligrams,
N.N.[Cl][191Pt][Cl] [^191cisplatin],,,,,,,,,,,,cytotoxic to the tumor
